Where two headings read alike, the source gives them in different places.
Key:
[1] = target: TNKS1 (Homo sapiens, UniProt O95271); assay: TNKS1/PARP Biochemical Assay (TNKS1)
[2] = test system: Wnt activity in DLD1-Wnt-Luc cells; assay: Wnt-Luciferase Reporter Assay
[3] = read-out: Wnt IC50, DLD1-Wnt-Luc cells

Row | IC50 [1] [nM] | IC50 ([2]; read-out: Wnt IC50) [nM] | IC50 [2, 3] [nM] | Structure (SMILES)
1 | 17 | 62 | – | Cc1cccc2c(=O)[nH]c(-c3cnc(N4CCN(C)CC4)nc3)cc12 [IQ-025, 5-Methyl-3-[2-(4-methyl-piperazin-1-yl)-pyrimidin-5-yl]-2H-isoquinolin-1-one]
2 | – | – | < 5000 | CN(C)Cc1ccc(-c2cc3c(F)cccc3c(=O)[nH]2)cc1 [IQ-032]
3 | < 500 | – | < 5000 | CN1CCN(Cc2ccc(-c3cc4c(C5CC5)cccc4c(=O)[nH]3)cc2)CC1 [IQ-046]
4 | < 50 | – | < 5000 | O=c1[nH]c(-c2ccc(CN3CCNCC3)cc2)cc2c(F)cccc12 [IQ-070]
5 | < 50 | – | < 5000 | CN(CC1CCNCC1)C(=O)c1ccc(-c2cc3c(Cl)cccc3c(=O)[nH]2)cc1 [IQ-094]
6 | < 500 | – | < 5000 | CN(C)CCOc1ccc(-c2cc3c(Br)cccc3c(=O)[nH]2)cc1 [IQ-132]
7 | < 500 | – | < 5000 | O=c1[nH]c(-c2ccc(OCCN3CCCC3)cc2)cc2c(Cl)cccc12 [IQ-135]
8 | – | – | < 5000 | CCc1cccc2c(=O)[nH]c(-c3ccc(CN4CCN(C(=O)OC(C)(C)C)CC4)cc3)cc12 [IQ-151, 4-[4-(5-Ethyl-1-oxo-1,2-dihydro-isoquinolin-3-yl)-benzyl]-piperazine-1-carboxylic acid tert-butyl ester]
9 | 51 | 41 | – | Cc1cccc2c(=O)[nH]c(-c3cnc(N4CCN(C(=O)C5CC5)CC4)nc3)cc12 [IQ-157, 3-[2-(4-Cyclopropanecarbonyl-piperazin-1-yl)-pyrimidin-5-yl]-5-methyl-2H-isoquinolin-1-one]
10 | < 500 | – | < 5000 | Cc1cccc2c(=O)[nH]c(-c3ccc(C(=O)N4CCOCC4)cc3F)cc12 [IQ-163]
11 | < 500 | – | < 5000 | Cc1cccc2c(=O)[nH]c(-c3ccc(C(=O)N4CCN(C)CC4)cc3F)cc12 [IQ-164]
12 | < 500 | – | < 5000 | Cc1cccc2c(=O)[nH]c(-c3ccc(C(=O)N4CCN(CC5CC5)CC4)cc3F)cc12 [IQ-165]
13 | < 500 | – | – | Cc1cccc2c(=O)[nH]c(-c3ccc(Cn4c(C)nc5ccccc54)cc3)cc12 [IQ-179]
14 | < 20 | – | – | Cc1cccc2c(=O)[nH]c(-c3ccc(Cn4ccnc4)cc3)cc12 [IQ-180]
15 | < 500 | – | – | Cc1cccc2c(=O)[nH]c(-c3ccc(Cn4cnc5ccccc54)cc3)cc12 [IQ-181]
16 | < 500 | – | – | Cc1cc(F)cc2c(=O)[nH]c(-c3ccc(C(=O)N(C)C4CCNC4)cc3)cc12 (stereo not drawn) [IQ-186]
17 | < 20 | – | – | Cc1ccc(F)c2c(=O)[nH]c(-c3ccc(C(=O)N4CCN(C)CC4)cc3)cc12 [IQ-189]
18 | < 20 | – | < 5000 | Cc1cccc2c(=O)[nH]c(-c3ccc(C(=O)N(CCO)CCO)cc3)cc12 [IQ-191, N,N-Bis-(2-hydroxy-ethyl)-4-(5-methyl-1-oxo-1,2-dihydro-isoquinolin-3-yl)-benzamide]
19 | < 20 | – | – | Cc1ccc(F)c2c(=O)[nH]c(-c3ccc(C(=O)N4CCN(CCO)CC4)cc3)cc12 [IQ-193]
20 | < 20 | – | – | Cc1cccc2c(=O)[nH]c(-c3cc(F)c(C(=O)N4CC(O)C4)c(F)c3)cc12 [IQ-194]

Row | IC50 [1] [nM] | IC50 ([2]; read-out: Wnt IC50) [nM] | IC50 [2, 3] [nM] | Structure (SMILES)
21 | < 20 | – | – | Cc1cc(F)cc2c(=O)[nH]c(-c3ccc(C(=O)N(C)C4CCN(C)CC4)cc3)cc12 [IQ-195]
22 | < 20 | – | – | Cc1cccc2c(=O)[nH]c(-c3ccc(C(=O)N(C)C4CCN(C)C4)cc3)cc12 (stereo not drawn) [IQ-196]
23 | < 20 | – | – | Cc1cccc2c(=O)[nH]c(-c3ccc(C(=O)N(C)C4CN(C)C4)cc3)cc12 [IQ-199]
24 | < 50 | – | – | Cc1cc(F)cc2c(=O)[nH]c(-c3ccc(C(=O)N(C)C4CN(C)C4)cc3)cc12 [IQ-201]
25 | < 50 | – | – | Cc1cc(F)cc2c(=O)[nH]c(-c3ccc(C(=O)N4CC(N(C)C)C4)cc3)cc12 [IQ-203]
26 | < 20 | – | – | Cc1cc(F)cc2c(=O)[nH]c(-c3ccc(C(=O)N(C)CC4CCN(C)CC4)cc3)cc12 [IQ-208]
27 | < 20 | – | – | Cc1cccc2c(=O)[nH]c(-c3ccc(C(=O)N(C)CC4(C)CCN(C)C4)cc3)cc12 (stereo not drawn) [IQ-209]
28 | < 20 | – | – | Cc1cccc2c(=O)[nH]c(-c3ccc(C(=O)N(C)C4CCCN(C)C4)cc3)cc12 (stereo not drawn) [IQ-211]
29 | < 20 | – | – | Cc1cc(F)cc2c(=O)[nH]c(-c3ccc(C(=O)N(C)C4CCNCC4)cc3)cc12 [IQ-213]
30 | < 50 | – | < 5000 | Cc1cc(F)cc2c(=O)[nH]c(-c3ccc(C(C)C(=O)N4CC(O)C4)cc3)cc12 (stereo not drawn) [IQ-216]
31 | < 50 | – | – | Cc1cc(F)cc2c(=O)[nH]c(-c3ccc(C(C)(C)C(=O)N4CC(O)C4)cc3)cc12 [IQ-218]
32 | < 20 | – | – | Cc1cccc2c(=O)[nH]c(-c3ccc(NC(CO)CO)nc3)cc12 [IQ-219]
33 | 26 | 274 | – | Cc1cccc2c(=O)[nH]c(-c3ccc(C(=O)N4CCN(C)CC4)nc3)cc12 [IQ-220]
34 | < 20 | – | – | CN1CCN(C(=O)c2ccc(-c3cc4c(F)cc(F)cc4c(=O)[nH]3)cc2)CC1 [IQ-227]
35 | < 50 | – | – | O=C(c1ccc(-c2cc3c(F)cc(F)cc3c(=O)[nH]2)cc1)N1CCN(CCO)CC1 [IQ-228, 5,7-Difluoro-3-{4-[4-(2-hydroxy-ethyl)-piperazine-1-carbonyl]-phenyl}-2H-isoquinolin-1-one]
36 | < 500 | – | – | O=C(c1ncc(-c2cc3c(F)ccc(F)c3c(=O)[nH]2)cn1)N1CCN(CC2CC2)CC1 [IQ-229]
37 | < 500 | – | – | COCC#Cc1cccc2c(=O)[nH]c(-c3ccc(OCCN(C)C)cc3)cc12 [IQ-234]
38 | < 500 | – | – | CN(C)CCOc1ccc(-c2cc3c(C#CCCO)cccc3c(=O)[nH]2)cc1 [IQ-236, 3-[4-(2-Dimethylaminoethoxy)phenyl]-5-(4-hydroxybut-1-ynyl)-2H-isoquinolin-1-one]
39 | – | > 10000 | – | CN(C)Cc1ccc(-c2cc3ccccc3c(=O)[nH]2)cc1 [REF-4, reference compound]

Further lines, the molecule ahead of its results:

Row | Structure (SMILES) | IC50 [1] [nM] | IC50 ([2]; read-out: Wnt IC50) [nM] | IC50 [2, 3] [nM]
40 | CN1CCN(c2ccc(-c3cc4c(Cl)cccc4c(=O)[nH]3)cn2)CC1 [IQ-002] | 39 | 179 | –
41 | O=c1[nH]c(-c2cnc(N3CCNCC3)c(F)c2)cc2c(Cl)cccc12 [IQ-024] | < 500 | – | < 5000
42 | CN(C)Cc1ccc(-c2cc3c(Br)cccc3c(=O)[nH]2)cc1 [IQ-033] | < 50 | – | < 5000
43 | Cc1cc(F)cc2c(=O)[nH]c(-c3ccc(CN4CCN(C)CC4)cc3)cc12 [IQ-080] | 29 | 42 | –
44 | CCc1cccc2c(=O)[nH]c(-c3ccc(CN4CCNCC4)cc3)cc12 [IQ-081] | < 50 | – | < 5000
45 | Cc1cccc2c(=O)[nH]c(-c3ccc(C(=O)N(C)CC4CCNCC4)cc3)cc12 [IQ-093, N-Methyl-4-(5-methyl-1-oxo-1,2-dihydro-isoquinolin-3-yl)-N-piperidin-4-ylmethyl-benzamide] | < 20 | – | < 5000
46 | CN(C)C1CCN(C(=O)c2ccc(-c3cc4c(Cl)cccc4c(=O)[nH]3)cc2)CC1 [IQ-103] | < 500 | – | < 5000
47 | O=c1[nH]c(-c2ccc(S(=O)(=O)N3CCNCC3)cc2)cc2c(Cl)cccc12 [IQ-124] | < 50 | – | < 5000
48 | CN(C)CCOc1ccc(-c2cc3c(Cl)cccc3c(=O)[nH]2)cc1 [IQ-128] | < 500 | – | < 5000
49 | O=c1[nH]c(-c2ccc(CN3CCNCC3)cc2)cc2c(Br)cccc12 [IQ-150] | < 500 | – | < 5000
50 | Cc1cccc2c(=O)[nH]c(-c3ccc(CN4CCC5(CCNC5)C4)nc3)cc12 (stereo not drawn) [IQ-160] | < 50 | – | < 5000
51 | Cc1cccc2c(=O)[nH]c(-c3ccc(CC(=O)N(C)C4CCN(C)CC4)cc3)cc12 [IQ-176] | < 20 | – | –
52 | CNC1CN(Cc2ccc(-c3cc4c(C)cccc4c(=O)[nH]3)cc2)C1 [IQ-177] | < 20 | – | –
53 | CNC1CN(Cc2ccc(-c3cc4c(C)cc(F)cc4c(=O)[nH]3)cc2)C1 [IQ-178] | < 20 | – | –
54 | Cc1cccc2c(=O)[nH]c(-c3ccc(Cn4cccn4)cc3)cc12 [IQ-182] | < 20 | – | –
55 | Cc1cccc2c(=O)[nH]c(-c3ccc(Cn4cccc4)cc3)cc12 [IQ-184] | < 500 | – | –
56 | Cc1cc(F)cc2c(=O)[nH]c(-c3ccc(C(C)(C)N4CC(O)C4)cc3)cc12 [IQ-185] | < 50 | – | –

Row | Structure (SMILES) | IC50 [1] [nM] | IC50 ([2]; read-out: Wnt IC50) [nM] | IC50 [2, 3] [nM]
57 | COCCN(CCOC)C(=O)c1ccc(-c2cc3c(C)cccc3c(=O)[nH]2)cc1 [IQ-187] | < 50 | – | –
58 | Cc1cccc2c(=O)[nH]c(-c3ccc(C(=O)N4CC(O)C4)cc3)cc12 [IQ-188] | < 20 | – | –
59 | Cc1cc(F)cc2c(=O)[nH]c(-c3ccc(C(=O)N4CCN(CCO)CC4)cc3)cc12 [IQ-192] | < 20 | – | –
60 | Cc1cc(F)cc2c(=O)[nH]c(-c3ccc(C(=O)N(C)C4CCN(C)C4)cc3)cc12 (stereo not drawn) [IQ-197] | < 20 | – | –
61 | Cc1cccc2c(=O)[nH]c(-c3ccc(C(=O)N(C)Cc4nccn4C)cc3)cc12 [IQ-198] | < 20 | – | –
62 | Cc1cccc2c(=O)[nH]c(-c3ccc(C(=O)N(C)C4CCNC4)cc3)cc12 (stereo not drawn) [IQ-200] | < 20 | – | –
63 | Cc1cccc2c(=O)[nH]c(-c3ccc(C(=O)N4CC(N(C)C)C4)cc3)cc12 [IQ-202] | < 500 | – | –
64 | Cc1cccc2c(=O)[nH]c(-c3ccc(C(=O)N(C)CC4CCN(C)C4)cc3)cc12 (stereo not drawn) [IQ-204] | < 20 | – | –
65 | Cc1cccc2c(=O)[nH]c(-c3ccc(C(=O)N(C)C4CCN(C(C)C)CC4)cc3)cc12 [IQ-206] | < 50 | – | –
66 | Cc1cc(F)cc2c(=O)[nH]c(-c3ccc(C(=O)N(C)CC4(C)CCN(C)C4)cc3)cc12 (stereo not drawn) [IQ-210] | < 20 | – | –
67 | Cc1cc(F)cc2c(=O)[nH]c(-c3ccc(C(=O)N(C)C4CCCN(C)C4)cc3)cc12 (stereo not drawn) [IQ-212] | < 50 | – | –
68 | Cc1cccc2c(=O)[nH]c(-c3ccc(CC(=O)N4CC(O)C4)cc3)cc12 [IQ-214] | < 20 | – | –
69 | Cc1cc(F)cc2c(=O)[nH]c(-c3ccc(CC(=O)N4CC(O)C4)cc3)cc12 [IQ-215] | < 20 | – | –
70 | Cc1cccc2c(=O)[nH]c(-c3ccc(C(C)(C)C(=O)N4CC(O)C4)cc3)cc12 [IQ-217] | < 50 | – | < 5000
71 | Cc1ccc(F)c2c(=O)[nH]c(-c3ccc(C(=O)N4CCN(C)CC4)nc3)cc12 [IQ-221] | < 500 | – | < 5000
72 | CN1CCN(C(=O)c2ccc(-c3cc4c(F)ccc(F)c4c(=O)[nH]3)cc2)CC1 [IQ-226] | < 50 | – | –
73 | CN1CCN(Cc2ccc(-c3cc4c(C#CCO)cccc4c(=O)[nH]3)cc2)CC1 [IQ-231] | < 50 | – | –

Source: patent US9193689B2, “3-aryl-5-substituted-isoquinolin-1-one compounds and their therapeutic use” (INSTITUTE OF CANCER RESEARCH: ROYAL CANCER HOSPITAL (THE), priority 2012, dated 2015)
